Like-named read-outs stand apart in the source and are kept apart here.
Tests used:
[1] = system: Carrageenin-induced edema; test: Carrageenin-induced edema; type: in vivo, rat (Donryu strain, male); settings: Rattus norvegicus, po, read-out: Inhibitory percent of swelling; for inhibition in vivo at 15 mg/kg: 15 mg/kg p.o.
Description: (iii) Carrageenin-induced edema
Each of the 6 Donryu strain male rats per group (each weighing about 140 g), which had been fasted overnight, was orally loaded with 4 ml of water and, after 30 minutes, the test compound was orally administered thereto. Thirty minutes thereafter, a 1%(Wt/V) solution of carrageenin in physiological saline was subcutaneously injected into the subplantar region of the left hind paw. At a time interval of one hour, starting from the end of the first hour till the end of the fifth hour after injection of carrageenin, the paw volume was measured by means of a manometer and pressure transducer. By comparison with the percent increase in swelling of the control group of rats to which a 0.5%(V/V) solution of Tween 80 had been administered, the mean inhibitory percent in 5 hours of swelling was calculated by the following equation: [formula]

[2] = system: phenylbenzoquinone writhing; test: Analgesic activity, phenylbenzoquinone method in mouse; type: in vivo, mouse (ddY strain, male); settings: for Frequency of writhing, mean ± S.E.: during 10 minutes
Description: (i) Phenylbenzoquinone method in mouse
The test compound was orally administered to each ddY strain male mouse (weighing 22±2 g; 8 mice per group). […] The frequency of writhing during 10 minutes from 5-minutes after the injection of phenylbenzoquinone was measured and compared with that of a control group to which a 0.5% Tween 80 solution was administered. The percent inhibition was calculated by the following equation: [formula]

Vascular permeability [3] = test: Vascular permeability in mice (Whittle's method); type: in vivo, mouse (ddY strain, male); settings: for ED30: Mus musculus, po; for Inhibition: dye leakage
Description: (i) Vascular permeability in mice (Whittle's method)
The test compound was orally administered to each ddY strain male mouse (weighing each about 20 g). After 20 minutes, 0.1 ml/10 g of a 4%(Wt/V) solution of Pontamine Sky Blue in physiological saline was intravenously injected and 10 minutes thereafter 0.1 ml/10 g of a 0.7%(V/V) solution of acetic acid in physiological saline was injected intraperitoneally. After 30 minutes, the mice were killed by suffocation with chloroform. After immediate laparotomy, the dye leaked into the peritoneal cavity was washed out with distilled water. The washings were made up with water to 30 ml and the absorbance at 620 mμ was measured. The amount of leaked dye per 20 g of mouse weight was compared.

Vascular permeability [4] = test: Vascular permeability in rat (Whittle's method); type: in vivo, rat (Wistar strain, male); settings: for ED30: Rattus norvegicus, po
Description: (ii) Vascular permeability in rat (Whittle's method)
The test compound was orally administered to each Wistar strain male rat (weighing about 150 g) which had been fasted overnight. After 55 minutes, 0.5 ml of a 0.5% Evans Blue solution was intravenously injected. Five minutes thereafter, 0.2 ml/100 g of a 3%(V/V) acetic acid solution was intraperitoneally injected. After 60 minutes from the injection of the acetic acid solution, the rats were killed by suffocation with chloroform. After immediate laparotomy, the dye leaked into the peritoneal cavity was washed out with physiological saline. The washings were made up with the saline to 30 ml and the absorbance at 640 mμ was measured to examine the effect of the test compounds by comparing the amounts of leaked dye per rat with one another.

Adjuvant arthritis = test: Adjuvant arthritis; type: in vivo, rat (Sprague-Dawley strain, male); settings: 1 mg/kg p.o./day, mean during one week
Description: A suspension containing 6 mg/ml of killed and dried Mycobacterium butyricum in liquid paraffin was subcutaneously injected into the subplantar region of the left hind paw of Sprague-Dawley strain male rats (weighing 180 to 200 g) in a proportion of 0.1 ml/rat. After 14 days, the rats having inflammatory paws of similar volumes were selected and the test compound was orally administered to the rats repeatedly at the rate shown in Table 4 during one week and the mean inhibitory percent of swelling during one week was determined.

[5] = system: pain threshold (brewer's yeast, hind paw); test: Analgesic activity, Randall-Selitto method in rat; type: in vivo, rat (Wistar strain, male); settings: for Inhibition: 100% = pain threshold raised by 150 g; for ED50: Rattus norvegicus, po
Description: (ii) Randall-Selitto method in rat
After one hour, the test compound was orally administered. One hour thereafter, the pain threshold value was measured four times at a time interval of one hour. The mean value of four values obtained was taken as the pain threshold value of each group of rats. The activity of the drug was assumed to be 100% when the pain threshold value was raised by 150 g.

[6] = system: fever (Mycobacterium butyricum); test: Antipyretic action; type: in vivo, rat (Wistar strain, female); settings: for ED1.0: Rattus norvegicus, po
Description: A suspension (0.6 mg/0.1 ml) of killed and dried Mycobacterium butyricum in liquid paraffin was subcutaneously injected in an amount of 0.1 ml into the subplantar region of the hind paw of each Wistar strain female rat weighing about 180 g. After 14 hours, the fevered rats were divided into groups, and each test compound was orally administered to each group to examine the antipyretic effect.

[7] = system: threshold value of pain due to pressure stimuli (tail); settings: for Analgesic effect: 100% = threshold raised by 160 g; for ED50: Mus musculus, po
[8] = system: Phenol Red (PSP) excretion; test: Uricosuric action (a), inhibition of Phenol Red (PSP) excretion; type: in vivo, rabbit (male); settings: dose not stated
Description: (a) The action was examined by the method of B. B. Brodie et al. who reported that the inhibitory action on Phenol Red (PSP) excretion correlates with the uricosuric action [Proc. Soc. Exp. Biol. Med., 86, 884 (1954)]. To a male rabbit weighing 2 to 3 kg was intraperitoneally administered the test compound. After 30 minutes, 75 mg/kg of a Phenol Red suspension was injected into the pinna vein of the rabbit and 30 minutes thereafter a blood sample was drawn from the pinna vein. The blood sample was centrifuged and the serum was diluted with physiological saline. The diluted serum was treated with 0.1 N NaOH to develop the color. The concentration of Phenol Red in the serum was determined from the absorbance at 560 mμ.

in vivo = settings: rat, po
[9] = Mus musculus, po, 10 min, writhing, 40 mg/kg p.o.
[10] = Mus musculus, po, 10 min, read-out: Inhibition

Compound	inhibition in vivo at 5 mg/kg ([1]; 5 mg/kg p.o., mean in 5 hours) [%]	inhibition in vivo at 15 mg/kg ([1]; mean in 5 hours) [%]	Frequency of writhing, mean ± S.E. ([2]; 20 mg/kg p.o.)	Frequency of writhing, mean ± S.E. ([2]; 40 mg/kg p.o.)	inhibition in vivo at 40 mg/kg [2, 9] [%]	ED50 ([2]; po, mouse, read-out: ED50) [mg/kg]	Dye leakage (P.S.B.) mean ± S.E. (Vascular permeability [3]; 10 mg/kg p.o.) [μg/20g]	Dye leakage (P.S.B.) mean ± S.E. (Vascular permeability [3]; 20 mg/kg p.o.) [μg/20g]	ED30 (Vascular permeability [3]) [mg/kg]	Inhibition (Vascular permeability [3]; 5 mg/kg p.o.) [%]	Inhibition (Vascular permeability [3]; 20 mg/kg p.o.) [%]	Inhibition (Vascular permeability [4]; 1 mg/kg p.o.) [%]	Inhibition (Vascular permeability [4]; 5 mg/kg p.o.) [%]	ED30 (Vascular permeability [4]) [mg/kg]	inhibition in vivo at 1 mg/kg ([1]; 5 h) [%]	inhibition in vivo at 5 mg/kg ([1]; 5 h) [%]	Frequency of writhing, mean ± S.E. ([2]; 5 mg/kg p.o.)	Frequency of writhing, mean ± S.E. ([2]; 10 mg/kg p.o.)	Analgesic effect ([7]; 20 mg/kg p.o.) [%]	ED50 [7] [mg/kg]	further results
CC(C(=O)O)c1ccc(-c2ccc(Cl)s2)cc1 (stereo not shown) [Compound C8]	17	41.9	17.5 ± 4.2	6.3 ± 0.6	73.3	27	–	–	–	–	–	–	–	–	–	–	–	–	–	–	inhibition in vivo at 20 mg/kg ([2]; Mus musculus, po, 10 min, writhing, 20 mg/kg p.o., read-out: Inhibition): 25.8%
O=C(O)Cc1ccc(-c2cccs2)cc1 [Compound C9]	15.1	24.1	–	13.9 ± 1.6	41.1	> 40	–	–	–	–	–	–	–	–	–	–	–	–	–	–	–
O=C(O)Cc1ccccc1Nc1c(Cl)cccc1Cl [Diclofenac sodium]	–	–	10.9 ± 1.7	–	–	–	227.0 ± 14.4	205.3 ± 10.1	14	5.4	36.0	5.4	30.2	4.8	6.4	39.8	21.4 ± 3.0	16.2 ± 3.1	71	9.5	Inhibitory percent of swelling (Adjuvant arthritis): 10.9%; ED50 ([2]; Mus musculus, po): 17.7 mg/kg; inhibition in vivo at 5 mg/kg [2, 10]: 9.3%; inhibition in vivo at 20 mg/kg [2, 10]: 53.8%; Inhibition ([5]; 1 mg/kg p.o.): 22.7%; Inhibition ([5]; 5 mg/kg p.o.): 49.7%; Inhibition ([5]; 25 mg/kg p.o.): 74.9%; ED50 [5]: 5.3 mg/kg; Mean decrease in temp. ([6]; 0.2 mg/kg p.o.): 0.88 °C; Mean decrease in temp. ([6]; 1 mg/kg p.o.): 1.63 °C; Mean decrease in temp. ([6]; 5 mg/kg p.o.): 1.57 °C; ED1.0 [6]: 0.25 mg/kg; Analgesic effect ([7]; 5 mg/kg p.o.): 31%
CC(C)Cc1ccc(C(C)C(=O)O)cc1 (stereo not shown) [Ibuprofen]	–	–	–	–	–	–	–	–	–	–	–	–	–	–	–	–	–	–	36	44.5	Analgesic effect ([7]; 80 mg/kg p.o.): 60%
COc1ccc2c(c1)c(CC(=O)O)c(C)n2C(=O)c1ccc(Cl)cc1 [Indomethacin]	–	–	5.4 ± 2.1	–	–	–	204.5 ± 17.6	176.4 ± 17.0	6.8	25.0	45.0	32.5	47.7	1	6.4	46.2	13.8 ± 2.9	9.1 ± 3.1	80	6	Dye leakage (P.S.B.) mean ± S.E. (Vascular permeability [3]; 5 mg/kg p.o.): 240.5 ± 25.9 μg/20g; Inhibition (Vascular permeability [3]; 10 mg/kg p.o.): 36.3%; Inhibition (Vascular permeability [4]; 0.5 mg/kg p.o.): 20.7%; ED50 ([2]; Mus musculus, po): 7 mg/kg; inhibition in vivo at 5 mg/kg [2, 10]: 41.5%; inhibition in vivo at 10 mg/kg [2, 10]: 61.4%; inhibition in vivo at 20 mg/kg [2, 10]: 77.1%; Inhibition ([5]; 1 mg/kg p.o.): 27.4%; Inhibition ([5]; 5 mg/kg p.o.): 41.6%; Inhibition ([5]; 25 mg/kg p.o.): 75.6%; ED50 [5]: 6.3 mg/kg; Uricosuric action (in words) [8]: very weak; Mean decrease in temp. ([6]; 0.2 mg/kg p.o.): 0.25 °C; Mean decrease in temp. ([6]; 1 mg/kg p.o.): 0.87 °C; Mean decrease in temp. ([6]; 5 mg/kg p.o.): 1.35 °C; ED1.0 [6]: 1.06 mg/kg; LD50 (in vivo): 16.2 mg/kg; Analgesic effect ([7]; 5 mg/kg p.o.): 44%
CC(C(=O)O)c1cccc(C(=O)c2ccccc2)c1 (stereo not shown) [Ketoprofen]	–	–	–	–	–	–	–	–	–	–	–	–	–	–	–	–	–	–	–	19.5	Analgesic effect ([7]; 10 mg/kg p.o.): 40%; Analgesic effect ([7]; 40 mg/kg p.o.): 61%
